Reference: PubChem BioAssay (NCI)
Several values for one entry are separate records, joined by “and”; a condition that tells them apart may be missing. Identical values can stand only once.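 Grown in 96-well plates, cells were treated for 48 hours with each compound at five concentrations. Insufficient inhibition: endpoint recorded as highest concentration tested. Here, GI50 denotes the concentration required for 50% inhibition of growth. Definition used: TGI = concentration required for complete inhibition of growth.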

Assays:
Test in all cases: NCI tumour cell line growth inhibition, 48 h
M14 melanoma = system: M14 melanoma
HOP-62 NSCLC = system: HOP-62 NSCLC
K-562 leukemia = system: K-562 leukemia
IGROV1 ovarian = system: IGROV1 ovarian
TK-10 renal = system: TK-10 renal
786-0 renal = system: 786-0 renal
SF-539 CNS = system: SF-539 CNS
KM12 colon = system: KM12 colon
MOLT-4 leukemia = system: MOLT-4 leukemia
SK-MEL-2 melanoma = system: SK-MEL-2 melanoma

Compound	GI50 (M14 melanoma)	TGI (M14 melanoma)	GI50 (HOP-62 NSCLC)	TGI (HOP-62 NSCLC)	GI50 (K-562 leukemia)	TGI (K-562 leukemia)	GI50 (IGROV1 ovarian)	TGI (IGROV1 ovarian)	GI50 (TK-10 renal)	TGI (TK-10 renal)	GI50 (786-0 renal)	TGI (786-0 renal)	GI50 (SF-539 CNS)	TGI (SF-539 CNS)	GI50 (KM12 colon)	TGI (KM12 colon)	GI50 (MOLT-4 leukemia)	TGI (MOLT-4 leukemia)	GI50 (SK-MEL-2 melanoma)	TGI (SK-MEL-2 melanoma)
CCOC(=O)c1cc(-c2ccc([N+](=O)[O-])cc2)n(-c2ccc(C(=O)O)c(O)c2)c1C	4.26 µM	15.2 µM	7.55 µM	23.3 µM	3.82 µM	> 100 µM	4.42 µM	19.2 µM	6.18 µM	20 µM	4.84 µM	17.2 µM	10.6 µM	22.5 µM	3.55 µM	11.7 µM	3.37 µM	20.7 µM	11.5 µM	24.7 µM
CCCCCCCCCCCCOC1C(CNCC2OC3OC(C)(C)OC3C2NC(=O)Nc2ccc(C(=O)OCC)cc2)OC2OC(C)(C)OC21 (stereo not drawn)	1.77 µM	3.38 µM	3.55 µM	13.5 µM	2.95 µM	> 100 µM	2.7 µM	7.37 µM	4.13 µM	15.2 µM	3.29 µM	11.5 µM	1.79 µM	3.52 µM	1.96 µM	3.69 µM	3.39 µM	8.43 µM	13.4 µM	29.7 µM
N#Cc1cnn2ccn(C3OC(COC(=O)c4ccccc4)C(OC(=O)c4ccccc4)C3OC(=O)c3ccccc3)c12 (stereo not drawn)		> 21.5 µM		> 21.5 µM		> 21.5 µM		> 21.5 µM		> 31.6 µM		> 21.5 µM		> 21.5 µM		21.5 µM		> 21.5 µM		0.843 µM
Cc1nc2nnc(C)n2c2c1C(=O)Nc1ccccc1N2		> 100 µM		> 100 µM		> 100 µM		> 100 µM		> 100 µM		> 100 µM		> 100 µM		> 100 µM		> 100 µM		> 100 µM
CCN1CCN(c2nc(NCCNc3ccnc4cc(Cl)ccc34)c3ccccc3n2)CC1	1.59 µM	3.36 µM	1.95 µM	6.43 µM	1.03 µM	3.89 µM	1.62 µM	4.69 µM	2.42 µM	6.02 µM	1.03 µM	2.44 µM	1.83 µM	3.36 µM	1.63 µM	5.18 µM	2.13 µM	7.17 µM	2.07 µM	4.33 µM
CC1=C[C@@H]2Cc3occc3C(C)(C)[C@@H]2CC1		47.1 µM		92.2 µM		42.6 µM		> 10 µM		45.4 µM		34.1 µM		58.7 µM		33.4 µM		39.4 µM		24.5 µM
CC1=C(CCCOC(=O)NCCCl)C2=C(C)C3(CC3)[C@@](C)(O)C(=O)C2=C1	2.46 µM	8.58 µM	2.37 µM	7.42 µM	23 µM	> 100 µM	1.77 µM	17.6 µM	3.55 µM	> 100 µM	2.71 µM	8.16 µM	2.04 µM	5.5 µM	10.5 µM	88.2 µM	5.49 µM	> 100 µM	2.31 µM	4.96 µM
O=c1c(Cl)c(Cl)cnn1-c1ccccc1		3.25 µM and 3.42 µM		16.7 µM and 32.1 µM	2.13 µM	5.14 µM and 4.67 µM	1.81 µM and 7.02 µM	3.37 µM and 21.5 µM		24.7 µM and 29.8 µM		11.1 µM and 12.1 µM	4.74 µM and 9.8 µM	10.2 µM and 23.2 µM		21.3 µM and 23.5 µM		7.19 µM and 4.14 µM		15.5 µM and 14.5 µM
COC(=O)c1c(OC)cccc1C(=O)O		> 100 µM		> 100 µM		> 100 µM		> 100 µM		> 100 µM		> 100 µM		> 100 µM		> 100 µM		> 100 µM		> 100 µM
Cc1cccc(C(C)(C)C)c1NC(=O)C(=O)Cc1nc2ccccc2s1		> 100 µM		> 100 µM		> 100 µM		> 100 µM		> 100 µM		> 100 µM		> 100 µM		> 100 µM		> 100 µM		> 100 µM
O=C(O)Cc1c[nH]c2ccc(F)cc12		> 100 µM		> 100 µM		> 100 µM		> 100 µM		> 100 µM		> 100 µM		> 100 µM		> 100 µM		> 100 µM		> 100 µM
NC1(CCCCCCCCCCC(=O)O)CNCCNCCNCCNC1		> 100 µM		91.6 µM		> 100 µM		> 100 µM		> 100 µM		> 100 µM		> 100 µM		> 100 µM		> 100 µM		> 100 µM
CC[n+]1ccc2c(c1)C(=O)c1nccc3c1c-2nc1ccccc13	0.943 µM	4.38 µM	0.0618 µM	1.19 µM	3 µM	22.2 µM	1.76 µM	10.9 µM	4.77 µM	16.8 µM	0.768 µM	2.97 µM	0.489 µM	1.47 µM	2.41 µM	15.2 µM	1.27 µM	7.31 µM	1.35 µM	6.08 µM
CCCCn1/c(=N/C(=S)N(C)C)ss/c1=N\C(=S)N(C)C		> 100 µM		> 100 µM		> 100 µM		> 100 µM		> 100 µM		> 100 µM		> 100 µM		> 100 µM		> 100 µM		> 100 µM
OC(c1cccc(C(F)(F)F)c1)c1cnccc1NC1CCCCCC1 (stereo not drawn)	1.8 µM	3.64 µM	1.89 µM	3.63 µM	1.57 µM	4.51 µM	1.7 µM	3.43 µM	1.74 µM	3.24 µM	1.62 µM	3.08 µM	1.71 µM	3.15 µM	1.93 µM	3.75 µM	2.3 µM	6.19 µM	1.71 µM	3.34 µM
N#Cc1c(O)c2c(c(O)c1C#N)C(=O)c1ccccc1C2=O	0.41 µM	1.92 µM	3.44 µM	10.5 µM	1.9 µM	6.63 µM	2.89 µM	10.8 µM	4.2 µM	13.8 µM	2.45 µM	5.45 µM	2.6 µM	5.53 µM	2.59 µM	12.1 µM	2.07 µM	5.07 µM	2.66 µM	7.73 µM
